Literature values, collected in article PMC2716802 (Structure (London, England : 1993), 2008).
No end group written: not given here.

Target: BoNT/A LC (Clostridium botulinum, UniProt P0DPI0)
Sequence (P0DPI0 2-448 limits assumed): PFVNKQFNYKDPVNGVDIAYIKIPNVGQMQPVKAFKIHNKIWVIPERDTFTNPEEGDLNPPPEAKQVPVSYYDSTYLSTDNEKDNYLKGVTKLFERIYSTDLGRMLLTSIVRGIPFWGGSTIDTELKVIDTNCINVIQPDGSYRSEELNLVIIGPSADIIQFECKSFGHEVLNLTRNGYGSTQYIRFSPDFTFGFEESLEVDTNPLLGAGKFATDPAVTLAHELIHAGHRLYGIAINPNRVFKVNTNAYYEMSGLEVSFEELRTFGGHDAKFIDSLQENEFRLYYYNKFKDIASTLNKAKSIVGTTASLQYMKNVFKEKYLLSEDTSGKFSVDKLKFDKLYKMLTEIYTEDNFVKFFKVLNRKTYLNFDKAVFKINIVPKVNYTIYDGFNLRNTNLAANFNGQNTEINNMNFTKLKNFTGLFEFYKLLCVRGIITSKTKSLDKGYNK

## Ac-CRATKML
  Ki: 1.9 µM
